Results published in patent US6417187B2, “1,2,4-triazole based compounds that can be used as insecticides or acaricides and processes” (Dow AgroSciences LLC, priority 2000, dated 2002).
Where two headings read alike, the source gives them in different places.

How the values were obtained:
Format in all cases: in vivo
[1] = system: tobacco budworm (Heliothis virescens); assay: Insecticidal test for tobacco budworm (cotton cotyledon leaf-disc dip); settings: for pest or weed control at 400 ppm: Heliothis virescens, 120 h, read-out: TBW: activity at 400 ppm against tobacco budworm (% Control rating)
[2] = system: beet armyworm (Spodoptera exigua); assay: Insecticidal test for beet armyworm (treated lepidopteran diet); settings: for pest or weed control at 400 ppm: Spodoptera exigua, 120 h, read-out: BAW: activity at 400 ppm against beet armyworm (% Control rating)
[3] = system: cabbage looper (Trichoplusia ni); assay: Insecticidal test for cabbage looper (cabbage leaf-disc dip); settings: for pest or weed control at 400 ppm: Trichoplusia ni, 120 h, read-out: CL: activity at 400 ppm against cabbage looper (% Control rating)
[4] = system: cotton aphid (Aphis gossvpii); assay: Insecticidal test for cotton aphid (squash cotyledon spray); settings: for pest or weed control at 50 ppm: 72 h, read-out: CA: activity at 50 ppm against cotton aphid (% Control rating)
[5] = system: two-spotted spider mite (Tetranychus urticae); assay: Insecticidal test for two-spotted spider mite, ovicide method; settings: for pest or weed control at 2.5 ppm: Tetranychus urticae, foliar, 144 h, read-out: SM: activity at 2.5 ppm against two-spotted spider mite (% Control rating)
[6] = system: Sweetpotato Whitefly (Bemisia tabacia); assay: Insecticidal test for Sweetpotato Whitefly (cotton plant spray); settings: for pest or weed control at 200 ppm: Bemisia, 312 h, read-out: WF: activity at 200 ppm against whitefly (% Control rating)
[7] = system: Brown Planthopper (Nilaparvata lugens); assay: Insecticidal test for Brown Planthopper (rice seedling roots in test solution)
[8] = system: Green Leafhopper (Nephotettix cincticeps); assay: Insecticidal test for Green Leafhopper (rice seedling roots in test solution)
[9] = 400 ppm, cotton cotyledon leaf-dip, 2nd instar larvae, 5 days
[10] = 400 ppm, treated diet, second-instar larvae, 5 days
[11] = 400 ppm, cabbage leaf-dip, 2nd instar larvae, 5 days
[12] = 50 ppm spray on infested squash cotyledons, 3 days, population reduction versus untreated
[13] = 200 ppm spray on cotton plants, 13 days, reduction of large nymphs
[14] = 10 ppm test solution, rice seedling roots, 3rd instar nymphs, mortality at 6 days
[15] = 2.5 ppm (table footnote), ovicide method on cotton leaf discs, 6 days

SMILES | pest or weed control at 400 ppm [1, 9] [%] | pest or weed control at 400 ppm [3, 11] [%] | pest or weed control at 50 ppm [4, 12] [%] | pest or weed control at 200 ppm [6, 13] [%] | BPH: activity at 10 ppm against brown planthopper (% Control rating) [7, 14] | GLH: activity at 10 ppm against green leafbopper (% Control rating) [8, 14] | BAW: activity at 400 ppm against beet armyworm (% Control rating) [2, 10] | CL: activity at 400 ppm against cabbage looper (% Control rating) [3, 11] | SM: activity at 2.5 ppm against two-spotted spider mite (% Control rating) [5, 15] | WF: activity at 200 ppm against whitefly (% Control rating) [6, 13] | CA: activity at 50 ppm against cotton aphid (% Control rating) [4, 12] | other results
Cn1nc(-c2c(F)cccc2Cl)nc1-c1sc(C#C[Si](C)(C)C)c(Cl)c1Cl [Compound 1, 1-Methyl-3-(2-chloro-6-fluorophenyl)-5-(3,4-dichloro-5-(2-trimethylsilyl-ethynyl)-thien-2-yl) [1 2,4]triazole] | 90 to 100 | 90 to 100 | 50 to 59 | < 50 | F (less than 50) | B (80-89) |  |  |  |  |  | pest or weed control at 400 ppm [2, 10]: 90 to 100%; pest or weed control at 2.5 ppm ([5]; in Gossypium hirsutum): 80 to 89%
Cn1nc(-c2c(F)cccc2Cl)nc1-c1sc(C#CC(C)(C)C)c(Cl)c1Cl [Compound 3] | 60 to 69 | 90 to 100 | 90 to 100 | < 50 |  |  |  |  |  |  |  | pest or weed control at 2.5 ppm [5, 15]: 80 to 89%
Cn1nc(-c2c(F)cccc2Cl)nc1-c1sc(C#Cc2ccccc2)c(Cl)c1Cl [Compound 4] | < 50 | 90 to 100 | 80 to 89 | < 50 | E (50-59) |  |  |  |  |  |  | pest or weed control at 400 ppm [2, 10]: 90 to 100%; pest or weed control at 2.5 ppm [5, 15]: 60 to 69%
Cn1nc(-c2c(F)cccc2Cl)nc1-c1sc(C#Cc2cccc(F)c2F)c(Cl)c1Cl [Compound 27] |  |  |  |  | E (50-59) | F (less than 50) | A (90-100) | A (90-100) | F (less than 50) | D (60-69) |  | TBW: activity at 400 ppm against tobacco budworm (% Control rating) [1, 9]: D (60-69)
CCN(CC)c1ncc(C#Cc2sc(-c3nc(-c4c(F)cccc4Cl)nn3C)c(Cl)c2Cl)cn1 [Compound 41] | 60 to 69 | 80 to 89 | < 50 | < 50 | E (50-59) |  |  |  |  |  |  | pest or weed control at 400 ppm [2, 10]: 90 to 100%; pest or weed control at 2.5 ppm [5, 15]: < 50%
CCCCCCc1ccc(C#Cc2sc(-c3nc(-c4c(F)cccc4Cl)nn3C)c(Cl)c2Cl)cc1 [Compound 54] |  |  |  |  |  |  |  |  |  |  |  | TBW: activity at 400 ppm against tobacco budworm (% Control rating) ([1]; in vivo): A (key: A: 90-100; B: 80-89; C: 70-79; D: 60-69; E: 50-59; F: less than 50; G: inactive); BAW: activity at 400 ppm against beet armyworm (% Control rating) ([2]; in vivo): A (key: A: 90-100; B: 80-89; C: 70-79; D: 60-69; E: 50-59; F: less than 50; G: inactive); CL: activity at 400 ppm against cabbage looper (% Control rating) ([3]; in vivo): B (key: A: 90-100; B: 80-89; C: 70-79; D: 60-69; E: 50-59; F: less than 50; G: inactive); CA: activity at 50 ppm against cotton aphid (% Control rating) ([4]; in vivo): E (key: A: 90-100; B: 80-89; C: 70-79; D: 60-69; E: 50-59; F: less than 50; G: inactive); WF: activity at 200 ppm against whitefly (% Control rating) ([6]; in vivo): F (key: A: 90-100; B: 80-89; C: 70-79; D: 60-69; E: 50-59; F: less than 50; G: inactive); BPH: activity at 10 ppm against brown planthopper (% Control rating) ([7]; in vivo): F (key: A: 90-100; B: 80-89; C: 70-79; D: 60-69; E: 50-59; F: less than 50; G: inactive); GLH: activity at 10 ppm against green leafbopper (% Control rating) ([8]; in vivo): F (key: A: 90-100; B: 80-89; C: 70-79; D: 60-69; E: 50-59; F: less than 50; G: inactive)
CCCCCCCc1ccc(C#Cc2sc(-c3nc(-c4c(F)cccc4Cl)nn3C)c(Cl)c2Cl)cc1 [Compound 55] |  |  |  |  |  |  |  |  |  |  |  | TBW: activity at 400 ppm against tobacco budworm (% Control rating) ([1]; in vivo): D (key: A: 90-100; B: 80-89; C: 70-79; D: 60-69; E: 50-59; F: less than 50; G: inactive); BAW: activity at 400 ppm against beet armyworm (% Control rating) ([2]; in vivo): A (key: A: 90-100; B: 80-89; C: 70-79; D: 60-69; E: 50-59; F: less than 50; G: inactive); CL: activity at 400 ppm against cabbage looper (% Control rating) ([3]; in vivo): A (key: A: 90-100; B: 80-89; C: 70-79; D: 60-69; E: 50-59; F: less than 50; G: inactive); CA: activity at 50 ppm against cotton aphid (% Control rating) ([4]; in vivo): F (key: A: 90-100; B: 80-89; C: 70-79; D: 60-69; E: 50-59; F: less than 50; G: inactive); WF: activity at 200 ppm against whitefly (% Control rating) ([6]; in vivo): F (key: A: 90-100; B: 80-89; C: 70-79; D: 60-69; E: 50-59; F: less than 50; G: inactive); BPH: activity at 10 ppm against brown planthopper (% Control rating) ([7]; in vivo): F (key: A: 90-100; B: 80-89; C: 70-79; D: 60-69; E: 50-59; F: less than 50; G: inactive); GLH: activity at 10 ppm against green leafbopper (% Control rating) ([8]; in vivo): F (key: A: 90-100; B: 80-89; C: 70-79; D: 60-69; E: 50-59; F: less than 50; G: inactive)
Cc1c(C#Cc2ccccc2)csc1-c1nc(-c2c(F)cccc2Cl)nn1C [Compound 67] |  |  |  |  |  |  | A (90-100) |  | B (80-89) | F (less than 50) | A (90-100) | TBW: activity at 400 ppm against tobacco budworm (% Control rating) [1, 9]: B (80-89)
CCCc1ccc(C#Cc2cc(C)c(-c3nc(-c4c(F)cccc4Cl)nn3C)s2)cc1 [Compound 72] |  |  |  |  | F (less than 50) |  | A (90-100) | B (80-89) | F (less than 50) | F (less than 50) | C (70-79) | 
CCCCC#Cc1cncc(-c2nc(-c3c(Cl)cncc3Cl)nn2C)c1 [Compound 86] |  |  |  |  | F (less than 50) | F (less than 50) |  |  | C (70-79) | F (less than 50) | E (50-59) | 
Cn1nc(-c2c(F)cccc2Cl)nc1-c1ccc(C#Cc2ccc(F)cc2)c(Cl)c1Cl [Compound 92] |  |  |  |  | F (less than 50) | F (less than 50) | A (90-100) | A (90-100) | F (less than 50) | F (less than 50) | A (90-100) | 
Cn1nc(-c2c(F)cccc2Cl)nc1-c1ccc(C#C[Si](C)(C)C)c(Cl)c1Cl [Compound 96] |  |  |  |  |  |  | A (90-100) | A (90-100) | D (60-69) | F (less than 50) | D (60-69) | TBW: activity at 400 ppm against tobacco budworm (% Control rating) [1, 9]: F (less than 50)
